Source: patent US20130023504A1, “Modulation of Prostaglandin/Cyclooxygenase Metabolic Pathways” (HUNTER-FLEMING LIMITED, priority 2006, published 2013)
Marks after values point to notes of the source that are not given here.

Columns and labels:
Type in all cases: cell-based
human PBMC = experiment: PG levels (PGE2, PGD2, 15d-PGJ2) in culture medium of human PBMC cultured with and without TNF-α, EIA (Example 3)
Method: (§1) Whole blood was collected from donors in EDTA-supplemented pouches at the Etablissement Français du Sang (Brest, France). The PBMC were isolated then from whole blood under sterile conditions within 36 hours after collection. Gradient density centrifugation was carried out on Ficoll (Eurobio). After washing in RPMI 1640 medium (Eurobio), cells were suspended in RPMI 1640 medium supplemented with 10% heat-inactivated fetal calf serum (Eurobio), 2 mM glutamine (D. Dutscher), 100 U of penicillin/ml (D. Dutscher), and 100 μg of streptomycin/ml (D. Dutscher). Monocytes were selected by plastic adherence for 1 h and approximately 10^7 cells were plated in 6-well tissue culture plates (3 mL medium per well). All incubations were performed in a humidified incubator at 37° C. and 5% CO2. Cells were recovered and dispersed in 2 ml fresh incubation medium supplemented with either 7β-hydroxyEPIA, 7β-hydroxy-DHEA, or 7α-hydroxy-DHEA (in 20 μL ethanol) in the presence or absence of 0.01 μg/mL TNF-α (Sigma-Aldrich). Control incubations contained 20 μl ethanol but no steroid. Supernatants were collected after 4 h and 24 hours incubations for measurement of their PG contents and cells were used for subsequent RNA isolation. A single step extraction method using the Trizol Reagent (Invitrogen, Cergy-Pontoise, France) provided total RNA.
Commercially available EIA kits were used for the determination of PGE2 levels (Oxford Biomedical Research, UK) and 15d-PGJ2 levels (Assay designs, Euromedex, France) in culture media. Measurement of PGD2 levels was obtained using the prostaglandin D2-MOX EIA kit (Cayman Chemical, Euromedex). In this case, and prior to assay, the fresh samples were immediately treated with the MOX-HCl reagent, which converted PGD2 into PGD2-MOX, thus preventing any further chemical degradation.
(§2) All assays were carried out in triplicate and results were plotted as mean±S.E.M. One-way analysis of variance was performed followed by Duncan's multiple range tests in order to compare the differences between groups. Differences were considered statistically significant when p<0.05.

COX-2 mRNA = COX-2 mRNA in human PBMC with and without TNF-α, quantitative RT-PCR
Method: as §1
(§3) cDNAs were synthesized from TURBO DNase I—treated RNA (Ambion, Huntingdon, UK) using the Superscript first strand synthesis system kit (Invitrogen). RT-PCR amplification mixtures (50 μL) contained 2.5× RealMaster Mix/20×SYBR solution (11.25 μL) (Eppendorf, Le Pecq, France) and 200 nM forward and reverse primers. Reactions were run on a RealPlex ep gradient S mastercycler (Eppendorf). The cycling conditions were 10 minutes at 95° C. and 45 cycles at 95° C., 55° C. and 68° C. for 15 seconds, 30 seconds and 30 seconds, respectively. Each assay included a standard curve of four serial dilution points of control cDNA. The HPRT1 housekeeping gene was used for quantification. All oligonucleotide primers (Table 2) were synthesized by Genecust/Distribio (Evry, France). The specificity of the amplified product was monitored by examining the melting curve of the product and confirmed by analysis on agarose gel electrophoresis.
as §2

m-PGES1 mRNA = m-PGES1 mRNA in human PBMC with and without TNF-α, quantitative RT-PCR
Method: as §1, §3, §2

[1] = 100 nM + TNF-α (10 ng/mL), 24 h

Question: Which 15d-PGJ2 (human PBMC; 1 nM + TNF-α (10 ng/mL), 4 h) does the source give for CC12CCC3C(C1CCC2=O)[C@H](O)C=C1C[C@@H](O)CCC13C (stereo partly drawn) [7α-hydroxy-DHEA, 7α-hydroxy-dehydroEPIAndrosterone] here?
Answer: 0.37 ± 0.020 ng/mL

Question: And the PGD2 (human PBMC; 1 nM + TNF-α (10 ng/mL), 4 h)?
Answer: 0.20 ± 0.003 ng/mL

Question: What about the PGE2 (human PBMC; 1 nM + TNF-α (10 ng/mL), 4 h) of the same compound?
Answer: 0.43 ± 0.003 ng/mL

Question: What about the 15d-PGJ2 (human PBMC; 1 nM + TNF-α (10 ng/mL), 24 h) of the same compound?
Answer: 0.63 ± 0.007^d ng/mL

Question: And the PGE2 (human PBMC; 1 nM + TNF-α (10 ng/mL), 24 h)?
Answer: 1.53 ± 0.048^c ng/mL

Question: What about the 15d-PGJ2 (human PBMC; 1 nM, 4 h, without TNF-α) of the same compound?
Answer: 0.46 ± 0.004 ng/mL

Question: And the PGD2 (human PBMC; 1 nM, 4 h, without TNF-α)?
Answer: 0.17 ± 0.004 ng/mL

Question: What about the PGE2 (human PBMC; 1 nM, 4 h, without TNF-α) of the same compound?
Answer: 0.22 ± 0.006 ng/mL

Question: What about the 15d-PGJ2 (human PBMC; 1 nM, 24 h, without TNF-α) of the same compound?
Answer: 0.51 ± 0.013^a ng/mL

Question: What about the PGD2 (human PBMC; 1 nM, 24 h, without TNF-α) of the same compound?
Answer: 0.13 ± 0.001 ng/mL

Question: And the PGE2 (human PBMC; 1 nM, 24 h, without TNF-α)?
Answer: 0.23 ± 0.003 ng/mL

Question: What about the 15d-PGJ2 (human PBMC; 10 nM + TNF-α (10 ng/mL), 4 h) of the same compound?
Answer: 0.40 ± 0.004 ng/mL

Question: And the PGD2 (human PBMC; 10 nM + TNF-α (10 ng/mL), 4 h)?
Answer: 0.17 ± 0.006 ng/mL

Question: And the PGE2 (human PBMC; 10 nM + TNF-α (10 ng/mL), 4 h)?
Answer: 0.45 ± 0.012 ng/mL

Question: And the 15d-PGJ2 (human PBMC; 10 nM + TNF-α (10 ng/mL), 24 h)?
Answer: 0.71 ± 0.012^d ng/mL

Question: What about the PGE2 (human PBMC; 10 nM + TNF-α (10 ng/mL), 24 h) of the same compound?
Answer: 1.75 ± 0.052^c ng/mL

Question: And the 15d-PGJ2 (human PBMC; 10 nM, 4 h, without TNF-α)?
Answer: 0.42 ± 0.010 ng/mL

Question: What about the PGD2 (human PBMC; 10 nM, 4 h, without TNF-α) of the same compound?
Answer: 0.18 ± 0.002 ng/mL

Question: And the PGE2 (human PBMC; 10 nM, 4 h, without TNF-α)?
Answer: 0.22 ± 0.006 ng/mL

Question: And the 15d-PGJ2 (human PBMC; 10 nM, 24 h, without TNF-α)?
Answer: 0.59 ± 0.003^a ng/mL

Question: What about the PGD2 (human PBMC; 10 nM, 24 h, without TNF-α) of the same compound?
Answer: 0.17 ± 0.003 ng/mL

Question: What about the PGE2 (human PBMC; 10 nM, 24 h, without TNF-α) of the same compound?
Answer: 0.30 ± 0.006 ng/mL

Question: And the 15d-PGJ2 (human PBMC; 100 nM + TNF-α (10 ng/mL), 4 h)?
Answer: 0.41 ± 0.021 ng/mL

Question: What about the PGD2 (human PBMC; 100 nM + TNF-α (10 ng/mL), 4 h) of the same compound?
Answer: 0.18 ± 0.001 ng/mL

Question: And the PGE2 (human PBMC; 100 nM + TNF-α (10 ng/mL), 4 h)?
Answer: 0.39 ± 0.009 ng/mL

Question: And the 15d-PGJ2 (human PBMC; [1])?
Answer: 0.51 ± 0.012^d ng/mL

Question: And the PGE2 (human PBMC; [1])?
Answer: 1.40 ± 0.037^c ng/mL

Question: And the 15d-PGJ2 (human PBMC; 100 nM, 4 h, without TNF-α)?
Answer: 0.41 ± 0.004 ng/mL

Question: And the PGD2 (human PBMC; 100 nM, 4 h, without TNF-α)?
Answer: 0.17 ± 0.003 ng/mL

Question: What about the PGE2 (human PBMC; 100 nM, 4 h, without TNF-α) of the same compound?
Answer: 0.22 ± 0.005 ng/mL

Question: What about the 15d-PGJ2 (human PBMC; 100 nM, 24 h, without TNF-α) of the same compound?
Answer: 0.58 ± 0.024^a ng/mL

Question: What about the PGD2 (human PBMC; 100 nM, 24 h, without TNF-α) of the same compound?
Answer: 0.13 ± 0.002 ng/mL

Question: What about the PGE2 (human PBMC; 100 nM, 24 h, without TNF-α) of the same compound?
Answer: 0.25 ± 0.012 ng/mL

Question: And the “COX-2 (mRNA), mRNA production relative to controls” value (COX-2 mRNA; 1 nM + TNF-α (10 ng/mL), 4 h)?
Answer: 4.72 ± 1.229^a

Question: And the “COX-2 (mRNA), mRNA production relative to controls” value (COX-2 mRNA; 1 nM, 4 h, without TNF-α)?
Answer: 0.56 ± 0.072^b

Question: What about the “COX-2 (mRNA), mRNA production relative to controls” value (COX-2 mRNA; 1 nM, 24 h, without TNF-α) of the same compound?
Answer: 0.82 ± 0.27^b

Question: What about the “COX-2 (mRNA), mRNA production relative to controls” value (COX-2 mRNA; 10 nM + TNF-α (10 ng/mL), 4 h) of the same compound?
Answer: 3.70 ± 1.246^a

Question: What about the “COX-2 (mRNA), mRNA production relative to controls” value (COX-2 mRNA; 10 nM, 4 h, without TNF-α) of the same compound?
Answer: 0.94 ± 0.048

Question: What about the “COX-2 (mRNA), mRNA production relative to controls” value (COX-2 mRNA; 10 nM, 24 h, without TNF-α) of the same compound?
Answer: 1.66 ± 0.408^a

Question: What about the “COX-2 (mRNA), mRNA production relative to controls” value (COX-2 mRNA; 100 nM, 4 h, without TNF-α) of the same compound?
Answer: 1.10 ± 0.108

Question: And the “COX-2 (mRNA), mRNA production relative to controls” value (COX-2 mRNA; 100 nM, 24 h, without TNF-α)?
Answer: 1.05 ± 0.214

Question: What about the “mPGES1 (mRNA), mRNA production relative to controls” value (m-PGES1 mRNA; 1 nM + TNF-α (10 ng/mL), 24 h) of the same compound?
Answer: 21.5 ± 6.66^a

Question: What about the “mPGES1 (mRNA), mRNA production relative to controls” value (m-PGES1 mRNA; 1 nM, 4 h, without TNF-α) of the same compound?
Answer: 0.76 ± 0.053

Question: What about the “mPGES1 (mRNA), mRNA production relative to controls” value (m-PGES1 mRNA; 1 nM, 24 h, without TNF-α) of the same compound?
Answer: 1.77 ± 0.324^a

Question: What about the “mPGES1 (mRNA), mRNA production relative to controls” value (m-PGES1 mRNA; 10 nM + TNF-α (10 ng/mL), 24 h) of the same compound?
Answer: 24.9 ± 10.30^a

Question: What about the “mPGES1 (mRNA), mRNA production relative to controls” value (m-PGES1 mRNA; 10 nM, 4 h, without TNF-α) of the same compound?
Answer: 0.94 ± 0.067

Question: What about the “mPGES1 (mRNA), mRNA production relative to controls” value (m-PGES1 mRNA; 10 nM, 24 h, without TNF-α) of the same compound?
Answer: 3.61 ± 0.662^a

Question: And the “mPGES1 (mRNA), mRNA production relative to controls” value (m-PGES1 mRNA; [1])?
Answer: 25.4 ± 6.96^a

Question: What about the “mPGES1 (mRNA), mRNA production relative to controls” value (m-PGES1 mRNA; 100 nM, 4 h, without TNF-α) of the same compound?
Answer: 0.71 ± 0.058

Question: And the “mPGES1 (mRNA), mRNA production relative to controls” value (m-PGES1 mRNA; 100 nM, 24 h, without TNF-α)?
Answer: 2.63 ± 0.475^a
